# Patent US20040067540A1, “Rapid method for screening compounds for in vivo activity” (priority 2003, published 2004)
# Experiments:
# various tumor cell lines = assay: Present method: tumor cells in implanted encapsulation device, response to antitumor agents; assay type: in vivo
# Excerpt: The present method can be utilized as a first line screen to test potential drug candidates for in vivo efficacy.
# p21^WAF1/Clp1 promoter = assay: Hollow fiber p21^WAF1/Clp1 promoter-luciferase reporter assay: light emission from Fibers with H1299C2 cells retrieved from dosed mice; assay type: in vivo, mouse (mouse (human H1299C2 cells in hollow fibers) H1299C2 cells in hollow fibers); conditions: H1299C2 cells in hollow fibers implanted s.c. in athymic nude mice; single intravenous dose 50, 25 or 12.5 mg/kg; Fibers retrieved 24 hours after dosing; p<0.01, one tailed Student t-test
# Procedure: A human lung cancer cell line, H1299, is obtained from the American Type Culture Collection, ATCC, Rockville, Md.) and cultured in the RPMI 1640 medium supplemented with 10% heat-inactivated Fetal Bovine Serum (Life Technologies, Grand Island, N.Y.). Cells harvested at approx. 85% confluency are washed with ice cold phosphate buffered saline (PBS) and suspended in the ice cold PBS at a concentration of 2×10^7 cells/mL. One half of one mL of the cell suspension is used for transfection with 10 μg of p21^WAF1/Clp1 luciferase plasmid and NeotetR selectable marker. Transfection is performed by electroporation at […]. Cells are then plated in the above medium containing 0.4 mg/mL G-418 (Life Technologies, Grand Island, N.Y.). One colony is selected, diluted to one cell/well and a single clone is expanded to generate p21^WAF1/Clp1 promoter-luciferase stable cell line designated H1299C2. The cell line tests negative for Mycoplasma contamination (Rapid Detection System by Gen-Probe, Inc., San Diego, Calif.) and for Mouse Antibody Production (MA BioServices, Inc., Rockville, Md.).
# The H1299C2 cell line is propagated and expanded for implantation in RPMI 1640 medium containing 10% heat-inactivated Fetal Bovine Serum (Life Technologies, Grand Island, N.Y.) in a cell culture incubator, at 37° C. with humidified atmosphere, containing 5% CO2. […]
SMILES,activity when tested on various tumor cell lines with the present method (various tumor cell lines),expression of the reporter gene (firefly luciferase) in vivo as judged by registered light emission from the Fibers (p21^WAF1/Clp1 promoter)
O=C1c2c(O)ccc(O)c2C(=O)c2c(NCCNCCO)ccc(NCCNCCO)c21 [mitoxantrone],significant activity,
CO[C@@]12[C@H](COC(N)=O)C3=C(C(=O)C(C)=C(N)C3=O)N1C[C@@H]1N[C@@H]12 [mitomycin C],significant activity,
"O=C(/C=C/c1ccc(CN(CCO)CCc2c[nH]c3ccccc23)cc1)NO [compound 1, N-hydroxy-3-[4-[[(2-hydroxyethyl)[2-(1H-indol-3-yl)-ethyl]-amino]methyl]phenyl]-2E-2-propenamide]",,"statistically significant (p<0.01, one tailed Student t-test) and reproducible expression of the reporter gene"
CC(=O)O[C@H]1C(=O)[C@@]2(C)[C@H]([C@H](OC(=O)c3ccccc3)[C@]3(O)C[C@H](OC(=O)[C@H](O)[C@@H](NC(=O)c4ccccc4)c4ccccc4)C(C)=C1C3(C)C)[C@]1(OC(C)=O)CO[C@@H]1C[C@@H]2O [paclitaxel],significant activity,
COc1cccc2c1C(=O)c1c(O)c3c(c(O)c1C2=O)C[C@@](O)(C(=O)CO)C[C@@H]3O[C@H]1C[C@H](N)[C@H](O)[C@H](C)O1 [doxorubicin],significant activity,
CC[C@]1(O)C[C@H]2CN(CCc3c([nH]c4ccccc34)[C@@](C(=O)OC)(c3cc4c(cc3OC)N(C=O)[C@H]3[C@@](O)(C(=O)OC)[C@H](OC(C)=O)[C@]5(CC)C=CCN6CC[C@]43[C@@H]65)C2)C1 [vincristine],significant activity,
CC[C@@]1(O)C(=O)OCc2c1cc1n(c2=O)Cc2cc3ccccc3nc2-1 [camptothecin],significant activity,
N.N.[Cl][Pt][Cl] [cis-platinum],significant activity,
COc1cc([C@@H]2c3cc4c(cc3[C@@H](O[C@@H]3O[C@@H]5CO[C@@H](C)O[C@H]5[C@H](O)[C@H]3O)[C@H]3COC(=O)[C@H]23)OCO4)cc(OC)c1O [etoposide],significant activity,
"Cc1[nH]c2ccccc2c1CCNCc1ccc(/C=C/C(=O)NO)cc1 [compound 2, N-hydroxy-3-[4-[[[2-(2-methyl-1H-indol-3-yl)-ethyl]-amino]methyl]phenyl]-2E-2-propenamide]",,"statistically significant (p<0.01, one tailed Student t-test) and reproducible expression of the reporter gene"
O=c1[nH]cc(F)c(=O)[nH]1 [5-fluorouracil],significant activity,
